Experimental data published in US20200247897A1, “THERAPEUTIC ANTIBODIES BASED ON MUTATED IGG HEXAMERS” (GENMAB B.V., priority 2017, published 2020).
Where two headings read alike, the source gives them in different places.

Tests used:
[1] = system: SW480; test: Drug combination screen (ATPlite, Synergy Score), SW480; format: cell-based, human
[2] = system: LS-411N; test: Drug combination screen (ATPlite, Synergy Score), LS-411N; format: cell-based, human
[3] = system: SNU-C2B; test: Drug combination screen (ATPlite, Synergy Score), SNU-C2B
[4] = system: HCT 116; test: Drug combination screen (ATPlite, Synergy Score), HCT 116
[5] = system: DLD-1; test: Drug combination screen (ATPlite, Synergy Score), DLD-1
[6] = compound in combination with IgG1-hDR5-01-G56T-E430G + IgG1-hDR5-05-E430G, SW480, 72 hour ATPlite, 6x6 matrix
[7] = compound in combination with IgG1-hDR5-01-G56T-E430G + IgG1-hDR5-05-E430G, LS-411N, 72 hour ATPlite, 6x6 matrix
[8] = compound in combination with IgG1-hDR5-01-G56T-E430G + IgG1-hDR5-05-E430G, SNU-C2B, 72 hour ATPlite, 6x6 matrix
[9] = compound in combination with IgG1-hDR5-01-G56T-E430G + IgG1-hDR5-05-E430G, HCT 116, 120 hour ATPlite, 6x6 matrix
[10] = compound in combination with IgG1-hDR5-01-G56T-E430G + IgG1-hDR5-05-E430G, DLD-1, 120 hour ATPlite, 6x6 matrix

Molecule: O=C(CCCCCCC(=O)Nc1ccccc1)NO
- Synergy Score SW480 [1, 6]: 7.3
- Synergy Score LS-411N [2, 7]: 4.4
- Synergy Score SNU-C2B [3, 8]: 11
- Synergy Score HCT-116 [4, 9]: 2.5
- Synergy Score DLD-1 [5, 10]: 4.4

Molecule: CC[C@@]1(O)C(=O)OCc2c1cc1n(c2=O)Cc2cc3cc(O)ccc3nc2-1 [10-Hydroxycamptothecin]
- Synergy Score SW480 [1]: 30.1
- Synergy Score LS-411N [2]: 16.9
- Synergy Score SNU-C2B [3]: 12.4
- Synergy Score HCT-116 [4]: 9.6
- Synergy Score DLD-1 [5]: 21.9

Molecule: CC1(C)CCC(CN2CCN(c3ccc(C(=O)NS(=O)(=O)c4ccc(NCC5CCOCC5)c([N+](=O)[O-])c4)c(Oc4cnc5[nH]ccc5c4)c3)CC2)=C(c2ccc(Cl)cc2)C1 [ABT-199]
- Synergy Score SW480 [1, 6]: 0
- Synergy Score LS-411N [2, 7]: 0.1
- Synergy Score SNU-C2B [3, 8]: 0
- Synergy Score HCT-116 [4, 9]: 0
- Synergy Score DLD-1 [5, 10]: 0

Molecule: CC1(C)CCC(c2ccc(Cl)cc2)=C(CN2CCN(c3ccc(C(=O)NS(=O)(=O)c4ccc(N[C@H](CCN5CCOCC5)CSc5ccccc5)c(S(=O)(=O)C(F)(F)F)c4)cc3)CC2)C1 [ABT-263]
- Synergy Score SW480 [1, 6]: 8
- Synergy Score LS-411N [2, 7]: 7.6
- Synergy Score SNU-C2B [3, 8]: 1
- Synergy Score HCT-116 [4, 9]: 0
- Synergy Score DLD-1 [5, 10]: 3.4

Molecule: CN(C)CC[C@H](CSc1ccccc1)Nc1ccc(S(=O)(=O)NC(=O)c2ccc(N3CCN(Cc4ccccc4-c4ccc(Cl)cc4)CC3)cc2)cc1[N+](=O)[O-] [ABT-737]
- Synergy Score SW480 [1, 6]: 7.5
- Synergy Score LS-411N [2, 7]: 4.2
- Synergy Score SNU-C2B [3, 8]: 1.1
- Synergy Score HCT-116 [4, 9]: 0
- Synergy Score DLD-1 [5, 10]: 1.5

Molecule: C[C@]1(c2nc3c(C(N)=O)cccc3[nH]2)CCCN1 [ABT-888]
- Synergy Score SW480 [1, 6]: 0
- Synergy Score LS-411N [2, 7]: 0.7
- Synergy Score SNU-C2B [3, 8]: 0.1

Molecule: Cc1ccc(C(=O)Nc2ccc(CN3CCN(C)CC3)c(C(F)(F)F)c2)cc1C#Cc1cnc2cccnn12 [AP24534]
- Synergy Score SW480 [1, 6]: 3.7
- Synergy Score LS-411N [2, 7]: 2.6
- Synergy Score SNU-C2B [3, 8]: 1.8
- Synergy Score HCT-116 [4, 9]: 1.4
- Synergy Score DLD-1 [5, 10]: 4.3

Molecule: C=CC(=O)Nc1ccc2ncnc(Nc3ccc(OCc4cccc(F)c4)c(Cl)c3)c2c1 [AST-1306]
- Synergy Score SW480 [1, 6]: 0.9
- Synergy Score LS-411N [2, 7]: 1.8
- Synergy Score SNU-C2B [3, 8]: 0.7
- Synergy Score HCT-116 [4, 9]: 0.1
- Synergy Score DLD-1 [5, 10]: 0.3

Molecule: Cn1cnc2c(F)c(Nc3ccc(Br)cc3Cl)c(C(=O)NOCCO)cc21 [AZD6244]
- Synergy Score SW480 [1, 6]: 11.7
- Synergy Score LS-411N [2, 7]: 0.7
- Synergy Score SNU-C2B [3, 8]: 0.6
- Synergy Score HCT-116 [4, 9]: 2.7
- Synergy Score DLD-1 [5, 10]: 1.5

Molecule: COc1ccc(-c2ccc3c(N4CCOC[C@@H]4C)nc(N4CCOC[C@@H]4C)nc3n2)cc1CO [AZD 8055]
- Synergy Score SW480 [1, 6]: 3.9
- Synergy Score LS-411N [2, 7]: 10
- Synergy Score SNU-C2B [3, 8]: 12.2
- Synergy Score HCT-116 [4, 9]: 1.7
- Synergy Score DLD-1 [5, 10]: 3

Molecule: Cn1c(=O)n(-c2ccc(C(C)(C)C#N)cc2)c2c3cc(-c4cnc5ccccc5c4)ccc3ncc21 [BEZ235]
- Synergy Score SW480 [1, 6]: 3.2
- Synergy Score LS-411N [2, 7]: 1.1
- Synergy Score SNU-C2B [3, 8]: 5.4
- Synergy Score HCT-116 [4, 9]: 1.4
- Synergy Score DLD-1 [5, 10]: 2.4

Molecule: CCN1CCN(c2ccc(Nc3cc(N(C)C(=O)Nc4c(Cl)c(OC)cc(OC)c4Cl)ncn3)cc2)CC1 [BGJ398]
- Synergy Score SW480 [1, 6]: 1.6
- Synergy Score LS-411N [2, 7]: 1.4
- Synergy Score SNU-C2B [3, 8]: 0.8
- Synergy Score HCT-116 [4, 9]: 0.1
- Synergy Score DLD-1 [5, 10]: 1

Molecule: C[C@@]1(C(=O)Nc2ccc(F)nc2)CCCN1c1nc(Nc2cc(C3CC3)n[nH]2)c2cccn2n1 [BMS-754807]
- Synergy Score SW480 [1, 6]: 5.9
- Synergy Score LS-411N [2, 7]: 10.8
- Synergy Score SNU-C2B [3, 8]: 1.3
- Synergy Score HCT-116 [4, 9]: 2.1
- Synergy Score DLD-1 [5, 10]: 11.3

Molecule: O=C(/C=C/c1cccc(S(=O)(=O)Nc2ccccc2)c1)NO [Belinostat]
- Synergy Score SW480 [1, 6]: 10.2
- Synergy Score LS-411N [2, 7]: 4.5
- Synergy Score SNU-C2B [3, 8]: 16.4
- Synergy Score HCT-116 [4, 9]: 4.1
- Synergy Score DLD-1 [5, 10]: 8.6

Molecule: CC[C@H](NC(=O)[C@H](C)NC)C(=O)N1C[C@@H](O)C[C@H]1Cc1c(-c2[nH]c3cc(F)ccc3c2C[C@@H]2C[C@H](O)CN2C(=O)[C@H](CC)NC(=O)[C@H](C)NC)[nH]c2cc(F)ccc12 [Birinapant, reference compound]
- Synergy Score SW480 [1, 6]: 54.5
- Synergy Score LS-411N [2, 7]: 61.2
- Synergy Score SNU-C2B [3, 8]: 37
- Synergy Score HCT-116 [4, 9]: 16.4
- Synergy Score DLD-1 [5, 10]: 5.8

Molecule: C[C@@H]1CCN(C(=O)CC#N)C[C@@H]1N(C)c1ncnc2[nH]ccc12 [CP-690550]
- Synergy Score SW480 [1, 6]: 0
- Synergy Score LS-411N [2, 7]: 0.6
- Synergy Score SNU-C2B [3, 8]: 0.1
- Synergy Score HCT-116 [4, 9]: 0
- Synergy Score DLD-1 [5, 10]: 0.1

Molecule: N.N.O=C([O-])C1(C(=O)[O-])CCC1.[Pt+2] [Carboplatin]
- Synergy Score SW480 [1, 6]: 19.5
- Synergy Score LS-411N [2, 7]: 12
- Synergy Score SNU-C2B [3, 8]: 11.6
- Synergy Score HCT-116 [4, 9]: 5.8
- Synergy Score DLD-1 [5, 10]: 11.3

Molecule: N.N.[Cl][Pt][Cl] [Cisplatin]
- Synergy Score SW480 [1, 6]: 18.9
- Synergy Score LS-411N [2, 7]: 15.4
- Synergy Score SNU-C2B [3, 8]: 12.9
- Synergy Score HCT-116 [4, 9]: 6.7
- Synergy Score DLD-1 [5, 10]: 8.8

Molecule: CC1=C(C(=O)Nc2cc3cn[nH]c3cc2F)C(c2ccc(C(F)(F)F)cc2)CC(=O)N1 (centres unmarked) [Compound G5K429286A]
- Synergy Score SW480 [1, 6]: 5.3
- Synergy Score LS-411N [2, 7]: 9.8
- Synergy Score SNU-C2B [3, 8]: 5.3
- Synergy Score HCT-116 [4, 9]: 2.6
- Synergy Score DLD-1 [5, 10]: 4.9

Molecule: C[C@@H](Oc1cc(-c2cnn(C3CCNCC3)c2)cnc1N)c1c(Cl)ccc(F)c1Cl [Crizotinib]
- Synergy Score SW480 [1, 6]: 8.9
- Synergy Score SNU-C2B [3, 8]: 5.4
- Synergy Score HCT-116 [4, 9]: 7.7
- Synergy Score DLD-1 [5, 10]: 13.4

Molecule: CC(C)(C)c1nc(-c2cccc(NS(=O)(=O)c3c(F)cccc3F)c2F)c(-c2ccnc(N)n2)s1 [Dabrafenib]
- Synergy Score SW480 [1, 6]: 3.1
- Synergy Score LS-411N [2, 7]: 0.5
- Synergy Score SNU-C2B [3, 8]: 0.5
- Synergy Score HCT-116 [4, 9]: 0.7
- Synergy Score DLD-1 [5, 10]: 2.2

Molecule: C[C@@H]1C[C@H]2[C@@H]3CCC4=CC(=O)C=C[C@]4(C)[C@@]3(F)[C@@H](O)C[C@]2(C)[C@@]1(O)C(=O)CO [Dexamethasone]
- Synergy Score SW480 [1, 6]: 0
- Synergy Score LS-411N [2, 7]: 0.4
- Synergy Score SNU-C2B [3, 8]: 0.8
- Synergy Score HCT-116 [4, 9]: 0
- Synergy Score DLD-1 [5, 10]: 0.1

Molecule: COc1cccc2c1C(=O)c1c(O)c3c(c(O)c1C2=O)C[C@@](O)(C(=O)CO)C[C@@H]3O[C@H]1C[C@H](N)[C@H](O)[C@H](C)O1 [Doxorubicin]
- Synergy Score SW480 [1, 6]: 20.5
- Synergy Score LS-411N [2, 7]: 9.4
- Synergy Score SNU-C2B [3, 8]: 18
- Synergy Score HCT-116 [4, 9]: 4.6
- Synergy Score DLD-1 [5, 10]: 16.2

Molecule: Cn1cc(C2=C(c3cn(C4CCN(Cc5ccccn5)CC4)c4ccccc34)C(=O)NC2=O)c2ccccc21 [Enzastaurin]
- Synergy Score SW480 [1, 6]: 6.3
- Synergy Score LS-411N [2, 7]: 5.6
- Synergy Score SNU-C2B [3, 8]: 0.5
- Synergy Score HCT-116 [4, 9]: 0.6
- Synergy Score DLD-1 [5, 10]: 0.9

Molecule: COc1cccc2c1C(=O)c1c(O)c3c(c(O)c1C2=O)C[C@@](O)(C(=O)CO)C[C@@H]3O[C@H]1C[C@H](N)[C@@H](O)[C@H](C)O1 [Epirubicin]
- Synergy Score SW480 [1, 6]: 17.7
- Synergy Score LS-411N [2, 7]: 5.8
- Synergy Score SNU-C2B [3, 8]: 15.1
- Synergy Score HCT-116 [4, 9]: 4.9
- Synergy Score DLD-1 [5, 10]: 15.6

Molecule: TW-37
- Synergy Score SW480 [1, 6]: 10.5
- Synergy Score LS-411N [2, 7]: 29.9
- Synergy Score HCT-116 [4, 9]: 5.4
